Data taken from patent US9958451B2, “Near-infrared fluorescent dyes with large stokes shifts” (Portland State University, priority 2011, dated 2018).
Like-named read-outs stand apart in the source and are kept apart here.

How the values were obtained:
[1] = 10 mM HEPES, pH 7.5, 15% (v/v) EtOH, Leytus et al., cited from earlier work
[2] = Spectral properties of rhodamine bis-boronic acids and precursors in DMSO:buffer; type: physicochemical
Procedure: Characterization: The spectral properties of compounds 50-53 were determined. Absorption and fluorescence spectra of solutions of the rhodamine bis-boronic acids 51 and 53, and their respective precursors 50 and 52, are shown in FIGS. 27A-C (in DMSO:buffer 1:9) and 27D-F (DMSO:buffer 1:1). […] Excitation and emission spectra were normalized to their absorbance at the excitation wavelength, and are proportional to quantum yield.

[3] = Absorbance and fluorescence in methanol; type: physicochemical
Procedure: Absorbance and fluorescence of compounds 22 and 8 also were measured in methanol. […] Thus, placement of the hydroxyl group proximal to the xanthene internal oxygen in compound 8 produced a bathochromic shift of 103 nm in the absorption spectrum. The transposition also imparted a corresponding shift in the excitation spectrum, and a large bathochromic shift of 128 nm in the fluorescence emission. Importantly, compound 8 absorbs and emits in the near-infrared with absorption and emission maxima of 701 nm and 816 nm, respectively.
Absorbance and fluorescence of compounds 20a and 15a also were measured in methanol. […] Thus, placement of the hydroxyl group proximal to the xanthene internal oxygen in compound 15a produced a bathochromic shift of 15 nm in the absorbance spectrum. The transposition also imparted a corresponding shift in the excitation spectrum, and a large bathochromic shift of 32 nm in the fluorescence emission.

[4] = UV-visible absorbance spectroscopy, 15 μM in 90% aqueous, 10% DMSO; type: physicochemical; settings: for Red shift of absorption spectra from 3-1 transposition versus known regiochemistry: depending on the ionization state
Procedure: Compounds 21 and 7 were characterized by UV-visible spectroscopy (FIG. 15). Absorbance was measured using 15 μM solutions of each compound in a solution that was 90% aqueous, 10% DMSO. The peaks at 600 nm (light dashed line) and 675 nm (light solid line) represent the dianions of compounds 21 and 7, respectively, in NaOH (pH 12). The peaks at 590 nm (heavy dashed line) and 650 nm (heavy solid line) represent a mix of mono- and dianions of compound 21 at pH 7.4 and predominantly monoanions of compound 7 at pH 9, respectively.
Compounds 22 and 8 were characterized by UV-visible spectroscopy (FIG. 16). Absorbance was measured using 15 μM solutions of each compound in a solution that was 90% aqueous, 10% DMSO. The peaks at 610 nm (light dashed line) and 685 nm (light solid line) represent the anions of compounds 22 and 8, respectively, in NaOH (pH 12). The peaks at 605 nm (heavy dashed line) and 805 nm (heavy solid line) represent the neutral forms of compounds 22 and 8 at pH 7.4, respectively.
Compounds 20a and 15a were characterized by UV-visible spectroscopy (FIG. 17). Absorbance was measured using 15 μM solutions of each compound in a solution that was 90% aqueous, 10% DMSO. The peaks at 545 nm (light dashed line) and 595 nm (light solid line) represent the respective anions, compounds 20c and 15h, in NaOH (pH 12).
Compound 15b (free amino) was characterized by UV-visible spectroscopy (FIG. 18), and compared to C.SNARF-5 (literature, SNARF=seminaphthorhodafluor). Absorbance was measured using a 15 μM solution of compound 15b in a solution that was 90% aqueous, 10% DMSO. The peak at 535 nm (heavy line) represents the predominantly phenolic form of 15b at pH 6. The peak at 615 nm (light line) represents the phenoxide of compound 15b at in NaOH (pH12). In comparison, C.SNARF-5 produces a peak at 550 nm (anionic form) and a peak at 485 nm (neutral form) (Whitaker et al., Anal. Biochem. 1991, 194, 330-344).
Absorbance was measured using 15 μM solutions of compound 15d in a solution that was 90% aqueous, 10% DMSO. The peak at 570 nm (heavy line) represents the predominantly neutral form of 15d at pH 6. The peak at 630 nm (light line) represents the phenoxide of compound 15d in NaOH (pH 12).
Compounds 20b and 15g were characterized by UV-visible spectroscopy (FIG. 20). Absorbance was measured using 15 μM solutions of each compound in a solution that was 90% aqueous, 10% DMSO. The peaks at 540 nm (dashed line) and 570 nm (solid line) represent the cations of compounds 20b and 15g, respectively, at pH 7.4.

[5] = Effect of pH / ionization on spectra; type: physicochemical
Description: There are through-space polar interactions between R^18 and the internal bridge oxygen in compounds according to general formulas III, IX, and X. The field effect is further enhanced in the case of symmetric compounds, such as those according to general formula IV when R^19 is oxygen. A unique intramolecular hydrogen-bonding network also is present in such compounds, e.g., compound 8 (FIG. 25). This network produces enhanced negative charge density on the ionizable oxygen atoms, thereby promoting a relatively large bathochromic shift. […] The hydrogen bonding can be seen in compounds such as compound 8 by ^1H NMR spectroscopy. A redistribution of the electronic density around the hydrogen atom occurs upon hydrogen bond formation between the hydroxyl proton, the carbonyl, and the central oxygen of compound 8. […] Evidence of hydrogen bonding was also seen in compound 15a, but to a lesser degree. In compound 15a, the total hydrogen bond distance O—H—O between the hydroxyl at the R^18 position and the xanthene central oxygen is 2.95 Å, which falls in range of common hydrogen bonds.
Known seminaphthorhodafluors display long wavelength absorption at high pH; however, the free amino compound in this series respond to low pH with increased long wavelength absorption.

[6] = Fluorescence emission spectra, 15 μM in 90% aqueous, 10% DMSO; type: physicochemical; settings: for Red-shifted emission from 3-1 transposition versus known regiochemistry: longest wavelength-emitting species
Procedure: Compounds 21 and 7 also were characterized by their fluorescence emission spectra. Fluorescence was measured using 15 μM solutions of each compound in a solution that was 90% aqueous, 10% DMSO. For compound 21, the longest wavelength emission observed from the dianions occurred near 680 nm at pH 9. For compound 7 (transposed), the longest wavelength emission observed from the monoanion occurred near 800 nm at pH 9.
Compounds 22 and 8 also were characterized by their fluorescence emission spectra. Fluorescence was measured using 15 μM solutions of each compound in a solution that was 90% aqueous, 10% DMSO For compound 22, the longest wavelength emission observed from the anion occurred near 690 nm at pH 9. […] Given the greater than 800 nm absorbance peak and the typically large Stokes shifts observed in this class of compounds, it is likely that the emission was beyond the working range of the instrument (>850 nm).
Compounds 20 and 15a also were characterized by their fluorescence emission spectra. Fluorescence was measured using 15 μM solutions of each compound in a solution that was 90% aqueous, 10% DMSO. For compound 20a, the longest wavelength emission observed from its corresponding anion, compound 20c, occurred near 640 nm in NaOH (pH 12). For compound 15a (transposed), the longest wavelength emission observed from the corresponding anion, compound 15h, occurred near 760 nm in NaOH.
Compound 15b also was characterized by its fluorescence emission spectrum and compared to C.SNARF-5. Fluorescence was measured using a 15 μM solution of compound 15b in a solution that was 90% aqueous, 10% DMSO. For C.SNARF-5, the longest wavelength emission observed from the anion occurred near 632 nm (Whitaker et al., Anal. Biochem. 1991, 194, 330-344). For compound 15b (transposed), the longest wavelength emission observed from the phenoxide occurred near 770 nm.
Fluorescence was measured using a 15 μM solution of compound 15d in a solution that was 90% aqueous, 10% DMSO. […] For compound 15d (transposed), the longest wavelength emission observed from the phenoxide occurred near 780 nm (NaOH, pH 12).
Compounds 20b and 15g also were characterized by their fluorescence emission spectra. Fluorescence was measured using 15 μM solutions of each compound in a solution that was 90% aqueous, 10% DMSO. For compound 20b, the longest wavelength emission observed from the cation occurred near 640 nm at pH 7.4. For compound 15g (transposed), the longest wavelength emission observed from the cation occurred near 770 nm at pH 7.4.

[7] = Quantum yield in 10:90 DMSO:aqueous solutions; type: physicochemical; settings: 7.5 μM, 10:90 DMSO:aqueous
Procedure: The quantum yield of yellow-orange emitting 16a was 0.4649, 40 times greater than the corresponding neutral compound 15a. It was slightly higher than the yellow-green emitting neutral compound 20a, and >2 times higher than orange-red emitting anion 20c. The compounds (7.5 μM) were analyzed in 10:90 DMSO:aqueous solutions. Fluorescence emission was readily visible in a darkened room when the solutions were excited from below with 3-watt megaMAX 505 nm ALS system. The emission-enhancing properties afforded through the combination of the 3-1 transposition and methylation is in contrast to previously reported methyl ethers of seminaphthofluorescein compounds.

[8] = Emission in blood (whole porcine blood in buffer); settings: 150 μM, 10% and 90% whole blood, excitation at 670 nm
Procedure: Compound 15d (Table 1) was diluted to 40 μM in 50% DMSO:50% 25 mM pH 9 phosphate buffer. […] Emission remained stable for at least 1 hr. The absorption profile matches the output of a laser pointer (635-670 nm; max output <5 mW).
Its absorbance and fluorescence spectra faded over time, but remained visible after about an hour (although with only 10-20% of its original emission intensity). Molecular modeling has shown favorable structural interactions of compounds 5f and 24 with glutathione (FIG. 12—compound 24).
Spectral behavior of compound 15g (type [c] annulated seminaphtho-rhodamine methyl ester (free amine) with the 3-1 transposition) was investigated to determine its potential for sensing use in whole blood. Solutions of compound 15g in 10% or 90% by volume whole blood (porcine blood in Na-EDTA, Lampire Biological Laboratories) were investigated in a 3×3 mm cell. The fluorophore was first dissolved in 50 mM, pH 7.4 phosphate buffer to ensure complete dissolution, and in the case of 90% whole blood, this stock solution was mixed with whole blood in a 1:9 ratio. In the case of 10% whole blood, 1 part whole blood was added to 9 parts of an appropriately diluted (with deionized water) solution of compound 15g stock. In both cases, the final concentration of compound 15g was 150 μM with a final phosphate buffer concentration of 5 mM. […] Throughout much of the spectrum, the dye produces a greater absorbance than the blood alone. The change in absorbance between the two spectra provides the effective absorbance of the dye. […] The broad absorption and large Stokes shift of this dye allows significant excitation with greater than 50% efficiency at wavelengths beyond that of the major hemoglobin peaks in blood.

[9] = NaOH (pH 12), anionic/phenoxide form, 90% aqueous 10% DMSO

SMILES: Cl.N=c1ccc2c(-c3ccccc3C(=O)O)c3ccc(N)cc3oc-2c1 [Rhodamine 110]
- Abs [1]: 495 nm
- Em [1]: 523 nm
- Q.Y. [1]: 0.91
- Brightness ([1]; @ 492): 60788 @ 492
- ε ([1]; @ 492): 66800 M⁻¹ cm⁻¹
- Em ([2]; DMSO:buffer 1:1): 526 nm
- Ex ([2]; DMSO:buffer 1:1): 502 nm
- ε ([2]; DMSO:buffer 1:1): 67905 M⁻¹ cm⁻¹
- Abs ([2]; DMSO:buffer 1:1, pH 7.4 phosphate buffer 12.5 mM): 503 nm

SMILES: COC(=O)c1ccccc1-c1c2ccc3cccc(O)c3c2oc2c1ccc1cccc(=O)c12 [Compound 8]
- Absorption maximum [3]: 701 nm
- Bathochromic shift in the absorption spectrum versus known regiochemistry [3]: 103 nm
- Bathochromic shift in the fluorescence emission versus known regiochemistry [3]: 128 nm
- Emission maximum [3]: 816 nm
- Red shift of absorption spectra from 3-1 transposition versus known regiochemistry ([4]; 90% aqueous 10% DMSO): 75-200 nm
- Absorbance peak [4, 9]: 685 nm
- Shift of the absorption maximum on deprotonation [5]: does not result in a large bathochromic shift
- pH up to which NIR fluorescence was observed [5]: ≤ 9
- Stokes shift [6]: unmeasurable
- Red-shifted emission from 3-1 transposition versus known regiochemistry [6]: more than 160 nm
- Longest wavelength emission ([6]; pH not stated): emission was not observed

SMILES: COC(=O)c1ccccc1-c1c2ccc(=O)cc-2oc2c1ccc1cccc(N)c12 [Compound 15e]
- Response of absorption to pH (pH titration) [5]: increased long wavelength absorption and decreased short wavelength absorption at low pH

SMILES: Cc1ccc(C)c(-c2c3ccc4cccc(O)c4c3oc3c2ccc2cccc(=O)c23)c1 [Compound 10, 7-(2,5-dimethylphenyl)-13-hydroxy-1H-dibenzo[c,h]xanthen-1-one]
- Shift of the absorption maximum on deprotonation [5]: hypsochromic

SMILES: COC(=O)c1ccccc1-c1c2ccc(=O)cc-2oc2c1ccc1cccc(OC)c12 [Compound 16a, methyl 2-(1-methoxy-10-oxo-10H-benzo[c]xanthen-7-yl)benzoate]
- Quantum yield [7]: 0.4649
- Quantum yield relative to anion 20c [7]: > 2 times
- Quantum yield relative to neutral compound 15a [7]: 40 times

SMILES: O=C1OC2(c3ccccc31)c1ccc3cccc(O)c3c1Oc1c2ccc2cccc(O)c12 [Compound 7]
- Red shift of absorption spectra from 3-1 transposition versus known regiochemistry ([4]; 90% aqueous 10% DMSO): 60-75 nm
- Absorbance peak [4, 9]: 675 nm
- Absorbance peak ([4]; pH 9, predominantly monoanions): 650 nm
- Form below physiological pH of 7.4 ([5]; 1:9 DMSO:buffer): colorless lactone
- Stokes shift [6]: about 150 nm
- Longest wavelength emission ([6]; NaOH (pH 12), anion/phenoxide): too weak to be detected or, more likely, beyond the working range of the instrument
- Red-shifted emission from 3-1 transposition versus known regiochemistry [6]: about 120 nm
- Longest wavelength emission ([6]; pH 9): ~800 nm

SMILES: COC(=O)c1ccccc1-c1c2ccc(=N)cc-2oc2c1ccc1cccc(N)c12 [Compound 15g]
- Red shift of absorption spectra from 3-1 transposition versus known regiochemistry ([4]; 90% aqueous 10% DMSO): about 30 nm
- Absorbance peak ([4]; pH 7.4, 90% aqueous 10% DMSO): 570 nm
- Emission spectrum maximum [8]: about 750 nm
- Enhancement of the Stokes shift by 3-1 transposition [6]: about 100 nm
- Stokes shift [6]: about 200 nm
- Red-shifted emission from 3-1 transposition versus known regiochemistry [6]: about 130 nm
- Longest wavelength emission ([6]; pH 7.4, cation): ~770 nm
